From ChEMBL document CHEMBL1136388, “EDTA bis-(methyl tyrosinate): a chelating peptoid peroxynitrite scavenger” (Bioorg Med Chem Lett, 2003)

Test: pKa value was determined
Assay type: physicochemical

pKa: 6.8
Structure (SMILES): COC(=O)C(Cc1ccc(O)cc1)NC(=O)CN(CCN(CC(=O)O)CC(=O)NC(Cc1ccc(O)cc1)C(=O)OC)CC(=O)O (stereo unspecified)
